From the NIST ThermoML archive (doi:10.1021/je034255e)

Key:
[1] = Liquid; for mass density: 101.33 kPa
[2] = excess molar enthalpy (molar enthalpy of mixing); xn = mol fraction of the nth substance listed; settings: 413.15 K, 1620 kPa, Liquid, Flow calorimetry

CCC(N)=O [propanamide]
[1]
Settings | mass density [kg/m3] | vapor or sublimation pressure [kPa]
355.65 K | 963.2 | –
358.15 K | 961.2 | –
363.15 K | 957.2 | –
375.45 K | – | 0.97
384.15 K | – | 1.53
394.15 K | – | 2.52
403.65 K | – | 4.02
414.05 K | – | 6.4
427.65 K | – | 11.22
443.85 K | – | 21.16
455.55 K | – | 31.04
462.95 K | – | 40.87
469.05 K | – | 50.69
475.85 K | – | 60.86

CCC(N)=O [propanamide] + CCCCCCCCCCC
[2]
Settings | excess molar enthalpy [kcal/mol]
x2 = 0.0092 | 0.0332
x2 = 0.0284 | 0.0576
x2 = 0.049 | 0.0607
x2 = 0.1074 | 0.0669
x2 = 0.7646 | 0.133
x2 = 0.9337 | 0.15
x2 = 0.9661 | 0.154
